# Reference: US9695155B2, “Herbicidal substituted pyrimidinyloxy benzene compounds” (E. I. DU PONT DE NEMOURS AND COMPANY, priority 2013, dated 2017)
# Tests used:
# [1] = tested on: rice; test: Test C flooded paddy test; assay type: in vivo, Oryza sativa; conditions: Flood, scale 0 to 100 (0 no effect, 100 complete control), 13 to 15 days
# Method in brief: (§1)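 Pots were flooded to 3 cm above the soil surface at treatment, compound applied directly to the paddy water, and that depth held throughout. Plants were kept in a greenhouse for 13 to 15 days, then visually rated against untreated controls.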
# [2] = tested on: ducksalad; test: Test C flooded paddy test; assay type: in vivo, Heteranthera limosa; conditions: Flood, scale 0 to 100 (0 no effect, 100 complete control), 13 to 15 days
# Method in brief: as §1
# [3] = tested on: wild poinsettia; test: Test E preemergence; assay type: in vivo, Euphorbia heterophylla; conditions: for Poinsettia, Wild plant response rating: scale 0 to 100 (0 no effect, 100 complete control)
# Method in brief: (§2)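 Compound in a non-phytotoxic solvent mixture with surfactant was applied preemergence to seeds in silt loam soil, or postemergence to plants 2 to 18 cm tall grown in peat-based potting medium. Plants were kept in a greenhouse for 14 to 21 days, then rated visually against untreated controls on a 0 (no effect) to 100 (complete control) scale.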
# [4] = tested on: surinam grass; test: Test E preemergence; assay type: in vivo, Brachiaria decumbens; conditions: for Surinam Grass plant response rating: scale 0 to 100 (0 no effect, 100 complete control)
# Method in brief: as §2
# [5] = tested on: giant foxtail; test: Test E preemergence; assay type: in vivo, Setaria faberii; conditions: for Foxtail, Giant plant response rating: scale 0 to 100 (0 no effect, 100 complete control)
# Method in brief: as §2
# [6] = tested on: green foxtail; test: Test E preemergence; assay type: in vivo, Setaria viridis; conditions: for Foxtail, Green plant response rating: scale 0 to 100 (0 no effect, 100 complete control)
# Method in brief: as §2
# [7] = tested on: goosegrass; test: Test E preemergence; assay type: in vivo, Eleusine indica; conditions: for Goosegrass plant response rating: scale 0 to 100 (0 no effect, 100 complete control)
# Text: (§3) Seeds of plant species selected from corn (Zea mays), soybean (Glycine max), velvetleaf (Abutilon theophrasti), lambsquarters (Chenopodium album), wild poinsettia (Euphorbia heterophylla), palmer pigweed (Amaranthus palmeri), waterhemp (common waterhemp, Amaranthus rudis), surinam grass (Brachiaria decumbens), large (Lg) crabgrass (Digitaria sanguinalis), Brazilian crabgrass (Digitaria horizontalis), fall panicum (Panicum dichotomiflorum), giant foxtail (Setaria faberii), green foxtail (Setaria viridis), goosegrass (Eleusine indica), johnsongrass (Sorghum halepense), ragweed (common ragweed, Ambrosia elatior), barnyardgrass (Echinochloa crus-galli), sandbur (southern sandbur, Cenchrus echinatus), arrowleaf sida (Sida rhombifolia), Italian ryegrass (Lolium multiflorum), dayflower (Virginia (VA) dayflower, Commelina virginica), field bindweed (Convolvulus arvensis), morningglory (Ipomoea coccinea), nightshade (eastern black nightshade, Solanum ptycanthum), kochia (Kochia scoparia), yellow nutsedge (Cyperus esculentus), cocklebur (common cocklebur, Xanthium strumarium), smartweed (ladysthumb smartweed, and hairy beggarticks (Bidens pilosa), were planted into a silt loam soil and treated preemergence with test chemicals formulated in a non-phytotoxic solvent mixture which included a surfactant.
# (§4) At the same time, plants from these crop and weed species and also horseweed (Canada horseweed, Conyza canadensis), waterhemp_RES1, (ALS & Triazine resistant common waterhemp, Amaranthus rudis), and waterhemp_RES2, (ALS & HPPD resistant common waterhemp, Amaranthus rudis) were planted in pots containing Redi-Earth® planting medium (Scotts Company, 14111 Scottslawn Road, Marysville, Ohio 43041) comprising spaghnum peat moss, vermiculite, wetting agent and starter nutrients were treated with postemergence applications of test chemicals formulated in the same manner. Plants ranged in height from 2 to 18 cm for postemergence treatments (1- to 4-leaf stage). Treated plants and controls were maintained in a greenhouse for 14 to 21 days, after which time all species were compared to controls and visually evaluated. Plant response ratings, summarized in Table E, are based on a scale of 0 to 100 where 0 is no effect and 100 is complete control. A dash (-) response means no test result.
# [8] = tested on: ragweed; test: Test E preemergence; assay type: in vivo, Ambrosia elatior; conditions: for Ragweed plant response rating: scale 0 to 100 (0 no effect, 100 complete control)
# Text: as §3, §4
# [9] = tested on: morningglory; test: Test E preemergence; assay type: in vivo, Ipomoea coccinea; conditions: for Morningglory plant response rating: scale 0 to 100 (0 no effect, 100 complete control)
# Text: as §3, §4
# [10] = tested on: nightshade; test: Test E preemergence; assay type: in vivo, Solanum ptycanthum; conditions: for Nightshade plant response rating: scale 0 to 100 (0 no effect, 100 complete control)
# Method in brief: as §2
# [11] = tested on: yellow nutsedge; test: Test E preemergence; assay type: in vivo, Cyperus esculentus; conditions: for Nutsedge, Yellow plant response rating: scale 0 to 100 (0 no effect, 100 complete control)
# Text: as §3, §4
# [12] = tested on: hairy beggarticks; test: Test E preemergence; assay type: in vivo, Bidens pilosa; conditions: preemergence; for Beggarticks plant response rating: scale 0 to 100 (0 no effect, 100 complete control)
# Method in brief: as §2
# [13] = 125 g ai/ha, scale 0 to 100, 0 no effect, 100 complete control
# [14] = 8 g ai/ha, scale 0 to 100, 0 is no effect, 100 is complete control
compound,measurement,setting,value
Fc1cnc(Oc2cccc(C(F)F)c2-n2cc(C(F)(F)F)cn2)nc1 [Compound 164],"Plant response rating, Rice",[1]; 31 g ai/ha,0
same,"Plant response rating, Rice",[1]; 62 g ai/ha,0
same,"Plant response rating, Rice",[1]; 125 g ai/ha,0
same,"Plant response rating, Rice",[1]; 250 g ai/ha,0
same,"Plant response rating, Ducksalad",[2]; 31 g ai/ha,0
same,"Plant response rating, Ducksalad",[2]; 62 g ai/ha,0
same,"Plant response rating, Ducksalad",[2]; 125 g ai/ha,75
same,"Plant response rating, Ducksalad",[2]; 250 g ai/ha,95
same,"Poinsettia, Wild plant response rating",[3]; 31 g ai/ha,0
same,"Poinsettia, Wild plant response rating",[3]; 62 g ai/ha,5
same,"Plant response rating, Poinsettia, Wild",[3]; [13],30
same,Surinam Grass plant response rating,[4]; 31 g ai/ha,0
same,Surinam Grass plant response rating,[4]; 62 g ai/ha,20
same,"Plant response rating, Surinam Grass",[4]; [13],20
same,"Foxtail, Giant plant response rating",[5]; 16 g ai/ha,0
same,"Foxtail, Giant plant response rating",[5]; 31 g ai/ha,20
same,"Foxtail, Giant plant response rating",[5]; 62 g ai/ha,60
same,"Plant response rating, Foxtail, Giant",[5]; [13],95
same,"Foxtail, Green plant response rating",[6]; 16 g ai/ha,0
same,"Foxtail, Green plant response rating",[6]; 31 g ai/ha,25
same,"Foxtail, Green plant response rating",[6]; 62 g ai/ha,60
same,"Plant response rating, Foxtail, Green",[6]; [13],100
same,Goosegrass plant response rating,[7]; 31 g ai/ha,5
same,Goosegrass plant response rating,[7]; 62 g ai/ha,20
same,"Plant response rating, Goosegrass",[7]; [13],75
same,Ragweed plant response rating,[8]; 31 g ai/ha,0
same,Ragweed plant response rating,[8]; 62 g ai/ha,25
same,"Plant response rating, Ragweed",[8]; [13],60
same,Morningglory plant response rating,[9]; 31 g ai/ha,65
same,Morningglory plant response rating,[9]; 62 g ai/ha,35
same,"Plant response rating, Morningglory",[9]; [13],98
same,Nightshade plant response rating,[10]; 31 g ai/ha,50
same,Nightshade plant response rating,[10]; 62 g ai/ha,80
same,"Plant response rating, Nightshade",[10]; [13],95
same,"Nutsedge, Yellow plant response rating",[11]; 31 g ai/ha,0
same,"Nutsedge, Yellow plant response rating",[11]; 62 g ai/ha,0
same,"Plant response rating, Nutsedge, Yellow",[11]; [13],20
same,Beggarticks plant response rating,[12]; 16 g ai/ha,0
same,Beggarticks plant response rating,[12]; 31 g ai/ha,0
same,Beggarticks plant response rating,[12]; 62 g ai/ha,20
same,"Plant response rating, Beggarticks",[12]; [13],20
NC(=S)c1cccc(Oc2ncc(Cl)cn2)c1-n1cc(Cl)cn1 [Compound 292],"Plant response rating, Poinsettia, Wild",[3]; [14],0
same,"Poinsettia, Wild plant response rating",[3]; 31 g ai/ha,5
same,"Poinsettia, Wild plant response rating",[3]; 62 g ai/ha,35
same,"Plant response rating, Poinsettia, Wild",[3]; [13],60
same,"Plant response rating, Surinam Grass",[4]; [14],0
same,Surinam Grass plant response rating,[4]; 31 g ai/ha,0
same,Surinam Grass plant response rating,[4]; 62 g ai/ha,10
same,"Plant response rating, Surinam Grass",[4]; [13],20
same,"Plant response rating, Foxtail, Giant",[5]; [14],0
same,"Foxtail, Giant plant response rating",[5]; 16 g ai/ha,0
same,"Foxtail, Giant plant response rating",[5]; 31 g ai/ha,5
same,"Foxtail, Giant plant response rating",[5]; 62 g ai/ha,80
same,"Plant response rating, Foxtail, Giant",[5]; [13],95
same,"Plant response rating, Foxtail, Green",[6]; [14],0
same,"Foxtail, Green plant response rating",[6]; 16 g ai/ha,0
same,"Foxtail, Green plant response rating",[6]; 31 g ai/ha,10
same,"Foxtail, Green plant response rating",[6]; 62 g ai/ha,25
same,"Plant response rating, Foxtail, Green",[6]; [13],75
same,"Plant response rating, Goosegrass",[7]; [14],0
same,Goosegrass plant response rating,[7]; 31 g ai/ha,20
same,Goosegrass plant response rating,[7]; 62 g ai/ha,50
same,"Plant response rating, Goosegrass",[7]; [13],70
same,"Plant response rating, Ragweed",[8]; [14],0
same,Ragweed plant response rating,[8]; 31 g ai/ha,0
same,Ragweed plant response rating,[8]; 62 g ai/ha,0
same,"Plant response rating, Ragweed",[8]; [13],35
same,"Plant response rating, Morningglory",[9]; [14],0
same,Morningglory plant response rating,[9]; 31 g ai/ha,0
same,Morningglory plant response rating,[9]; 62 g ai/ha,15
same,"Plant response rating, Morningglory",[9]; [13],50
same,"Plant response rating, Nightshade",[10]; [14],0
same,Nightshade plant response rating,[10]; 31 g ai/ha,5
same,Nightshade plant response rating,[10]; 62 g ai/ha,70
same,"Plant response rating, Nightshade",[10]; [13],80
same,"Plant response rating, Nutsedge, Yellow",[11]; [14],0
same,"Nutsedge, Yellow plant response rating",[11]; 31 g ai/ha,0
same,"Nutsedge, Yellow plant response rating",[11]; 62 g ai/ha,15
same,"Plant response rating, Nutsedge, Yellow",[11]; [13],35
same,"Plant response rating, Beggarticks",[12]; [14],0
same,Beggarticks plant response rating,[12]; 16 g ai/ha,0
same,Beggarticks plant response rating,[12]; 31 g ai/ha,15
same,Beggarticks plant response rating,[12]; 62 g ai/ha,15
same,"Plant response rating, Beggarticks",[12]; [13],35
